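96-well plates; 48 h exposure; 5 concentrations. Endpoints by linear interpolation between flanking doses. Not reached: highest tested concentration assigned. TGI: total growth inhibition.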 Where a SMILES comes first, the peptide text is derived from it. [ ]: non-standard residue; d: D form. The star is where a group is joined. NMeAc5c = CNC1(C(=O)O)CCCC1; Boc = CC(C)(C)OC(=O)*; OBn = c1ccc(CO*)cc1
Assays:
Test in all cases: inhibition of tumour cell growth, NCI panel, 48 h
M14 melanoma = tested on: M14 melanoma
EKVX NSCLC = tested on: EKVX NSCLC
HCT-116 colon = tested on: HCT-116 colon
BT-549 breast = tested on: BT-549 breast
A549 NSCLC = tested on: A549 NSCLC
SF-268 CNS = tested on: SF-268 CNS
SW-620 colon = tested on: SW-620 colon
UACC-62 melanoma = tested on: UACC-62 melanoma
OVCAR-4 ovarian = tested on: OVCAR-4 ovarian
NCI-H23 lung = tested on: NCI-H23 lung
IGROV1 ovarian = tested on: IGROV1 ovarian
UACC-257 melanoma = tested on: UACC-257 melanoma
HS 578T breast = tested on: HS 578T breast
SK-MEL-28 melanoma = tested on: SK-MEL-28 melanoma
MDA-N = tested on: MDA-N
MALME-3M melanoma = tested on: MALME-3M melanoma
HL-60(TB) leukemia = tested on: HL-60(TB) leukemia
KM12 colon = tested on: KM12 colon
HT29 colon = tested on: HT29 colon
NCI-H460 lung = tested on: NCI-H460 lung
RXF 393 renal = tested on: RXF 393 renal
UO-31 renal = tested on: UO-31 renal
RPMI-8226 leukemia = tested on: RPMI-8226 leukemia
PC-3 prostate = tested on: PC-3 prostate
COLO 205 colon = tested on: COLO 205 colon
SN12C renal = tested on: SN12C renal
OVCAR-5 ovarian = tested on: OVCAR-5 ovarian
786-0 renal = tested on: 786-0 renal
HCC-2998 colon = tested on: HCC-2998 colon
ACHN renal = tested on: ACHN renal
MCF7 breast = tested on: MCF7 breast
MDA-MB-435 = tested on: MDA-MB-435
SNB-19 CNS = tested on: SNB-19 CNS
TK-10 renal = tested on: TK-10 renal
SF-295 CNS = tested on: SF-295 CNS
DU-145 prostate = tested on: DU-145 prostate
T-47D breast = tested on: T-47D breast
SK-MEL-5 melanoma = tested on: SK-MEL-5 melanoma
HOP-62 NSCLC = tested on: HOP-62 NSCLC
SF-539 CNS = tested on: SF-539 CNS
OVCAR-3 ovarian = tested on: OVCAR-3 ovarian
SNB-75 CNS = tested on: SNB-75 CNS
U251 CNS = tested on: U251 CNS
CCRF-CEM leukemia = tested on: CCRF-CEM leukemia
K-562 leukemia = tested on: K-562 leukemia
NCI/ADR-RES ovarian = tested on: NCI/ADR-RES ovarian
HOP-92 NSCLC = tested on: HOP-92 NSCLC
NCI-H226 lung = tested on: NCI-H226 lung
LOX IMVI melanoma = tested on: LOX IMVI melanoma
HCT-15 colon = tested on: HCT-15 colon
SK-OV-3 ovarian = tested on: SK-OV-3 ovarian
SR leukemia = tested on: SR leukemia
OVCAR-8 ovarian = tested on: OVCAR-8 ovarian
MOLT-4 leukemia = tested on: MOLT-4 leukemia
SK-MEL-2 melanoma = tested on: SK-MEL-2 melanoma
MDA-MB-231 breast = tested on: MDA-MB-231 breast

## CN(C(=O)C(Cc1ccccc1)NC(=O)OC(C)(C)C)C1(C(=O)NC(Cc2ccccc2)C(=O)OCc2ccccc2)CCCC1 (stereo not drawn) (Boc-Phe-[NMeAc5c]-Phe-OBn; configuration not given here)
M14 melanoma
  TGI: 45.9 µM
EKVX NSCLC
  TGI: > 100 µM
HCT-116 colon
  TGI: > 100 µM
BT-549 breast
  TGI: > 100 µM
A549 NSCLC
  TGI: > 100 µM
SF-268 CNS
  TGI: > 100 µM
SW-620 colon
  TGI: > 100 µM
UACC-62 melanoma
  TGI: 71.2 µM
OVCAR-4 ovarian
  TGI: > 100 µM
NCI-H23 lung
  TGI: > 100 µM
IGROV1 ovarian
  TGI: > 100 µM
UACC-257 melanoma
  TGI: > 100 µM
HS 578T breast
  TGI: > 100 µM
SK-MEL-28 melanoma
  TGI: > 100 µM
MDA-N
  TGI: 65.4 µM
MALME-3M melanoma
  TGI: > 100 µM
HL-60(TB) leukemia
  TGI: 47.5 µM
KM12 colon
  TGI: > 100 µM
HT29 colon
  TGI: 56.7 µM
NCI-H460 lung
  TGI: 59.8 µM
RXF 393 renal
  TGI: > 100 µM
UO-31 renal
  TGI: 82.6 µM
RPMI-8226 leukemia
  TGI: 57.2 µM
PC-3 prostate
  TGI: > 100 µM
COLO 205 colon
  TGI: 52.3 µM
SN12C renal
  TGI: > 100 µM
OVCAR-5 ovarian
  TGI: > 100 µM
786-0 renal
  TGI: > 100 µM
HCC-2998 colon
  TGI: > 100 µM
ACHN renal
  TGI: > 100 µM
MCF7 breast
  TGI: > 100 µM
MDA-MB-435
  TGI: > 100 µM
SNB-19 CNS
  TGI: > 100 µM
TK-10 renal
  TGI: > 100 µM
SF-295 CNS
  TGI: > 100 µM
DU-145 prostate
  TGI: > 100 µM
T-47D breast
  TGI: > 100 µM
SK-MEL-5 melanoma
  TGI: > 100 µM
HOP-62 NSCLC
  TGI: > 100 µM
SF-539 CNS
  TGI: > 100 µM
OVCAR-3 ovarian
  TGI: > 100 µM
SNB-75 CNS
  TGI: > 100 µM
U251 CNS
  TGI: 51.1 µM
CCRF-CEM leukemia
  TGI: > 100 µM
K-562 leukemia
  TGI: 97 µM
NCI/ADR-RES ovarian
  TGI: > 100 µM
HOP-92 NSCLC
  TGI: > 100 µM
NCI-H226 lung
  TGI: > 100 µM
LOX IMVI melanoma
  TGI: > 100 µM
HCT-15 colon
  TGI: > 100 µM
SK-OV-3 ovarian
  TGI: 41.3 µM
SR leukemia
  TGI: 69.1 µM
OVCAR-8 ovarian
  TGI: > 100 µM
MOLT-4 leukemia
  TGI: 84.2 µM
SK-MEL-2 melanoma
  TGI: > 100 µM
MDA-MB-231 breast
  TGI: 87 µM

From PubChem BioAssay (NCI)
